The values that follow are results of earlier work, collected in patent US8791078B2, “Cell protection in dialysis patients by administration of a creatine compound” (Crearene Ltd., priority 2009, dated 2014).

For series [1], the system named is muscle cramps associated with haemodialysis. The arrangement: dose or concentration left out as unconfirmed. As to conditions: oral, before each dialysis session for 4 weeks.
Series [2] deals with T1, creatine Transporter Protein (CrT) (Homo sapiens, UniProt P48029).
T1 sequence (P48029 1-635): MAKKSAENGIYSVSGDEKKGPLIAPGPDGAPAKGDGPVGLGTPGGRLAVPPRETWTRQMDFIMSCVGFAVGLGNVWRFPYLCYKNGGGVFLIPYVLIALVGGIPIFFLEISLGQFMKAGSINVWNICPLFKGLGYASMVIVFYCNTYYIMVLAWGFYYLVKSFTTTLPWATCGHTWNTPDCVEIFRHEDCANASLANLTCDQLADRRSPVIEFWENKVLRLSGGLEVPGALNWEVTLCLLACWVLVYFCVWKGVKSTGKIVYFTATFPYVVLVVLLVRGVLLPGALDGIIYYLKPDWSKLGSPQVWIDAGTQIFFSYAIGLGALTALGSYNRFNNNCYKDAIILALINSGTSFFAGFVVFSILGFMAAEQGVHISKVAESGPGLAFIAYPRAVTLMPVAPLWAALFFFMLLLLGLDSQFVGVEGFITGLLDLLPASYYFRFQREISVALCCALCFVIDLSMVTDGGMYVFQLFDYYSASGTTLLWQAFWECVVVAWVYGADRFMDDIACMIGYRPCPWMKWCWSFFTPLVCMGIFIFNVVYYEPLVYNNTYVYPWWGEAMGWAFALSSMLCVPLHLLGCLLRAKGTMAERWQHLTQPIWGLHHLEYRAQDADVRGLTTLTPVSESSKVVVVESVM
As to conditions: CrT in the plasma membrane.

For series [3], the system named is total plasma homocysteine. The conditions noted are these: chronic haemodialysis patients, oral creatine (2 giday).
Series [4] deals with serum levels of homocysteine. As to conditions: creatine supplementation.

Turning to `CN(CC(=O)O)C(=N)N.O` [creatine monohydrate], in series [1], the “effect on muscle cramps associated with haemodialysis” value is “alleviates muscle cramps associated with haemodialysis”.

As to `CN(CC(=O)O)C(=N)N` [creatine], the Km in series [2] is 25 to 30 µM. Further, in series [3], the “effect on total plasma homocysteine” value is “does not decrease total plasma homocysteine”. Further, the “effect on serum levels of homocysteine” value in series [4] is “reduce serum levels of homocysteine”.
